The text below walks through data of ChEMBL document CHEMBL4765471, “1-Methyl-1H-pyrazole-5-carboxamide Derivatives Exhibit Unexpected Acute Mammalian Toxicity” (J Med Chem, 2021).

A short description of data set [1]: Selectivity index, ratio of IC50 for toxicity in rat FAO cells assessed as reduction in cellular respiration to IC50 for inhibition of Haemonchus contortus by L4 development assay.
Data set [2] can be described thus: Toxicity in rat FAO cells assessed as reduction in cell proliferation incubated for 48 hrs by crystal violet staining based assay.
A short description of data set [3]: Toxicity in Swiss mouse assessed as induction of reversible motor depression at 5 mg/kg, po measured at first 15 mins post dosing. Particulars: in vivo, 0.25 h. The class given is organism-based.
The nature of data set [4]: Toxicity in rat FAO cells assessed as reduction in cellular respiration incubated over 1 hrs by extracellular flux analyzer based assay. The data set is classed as cell-based.
Data set [5] can be described thus: Toxicity in orally dosed Swiss mouse assessed as induction of observable clinical effects measured 2 to 4 days after dosing. The class given is organism-based. Particulars: in vivo, po, time 2-4 day.
A short description of data set [6]: Toxicity in human MCF-10A cells. The data set is classed as cell-based.
Data set [7] in a line: Inhibition of Haemonchus contortus by L4 development assay. The class given is functional.
Data set [8] can be described thus: Toxicity in male Swiss mouse assessed as induction of reversible motor depression at 20 mg/kg, po. The data set is classed as organism-based. Conditions: in vivo.
A short description of data set [9]: Toxicity in female Swiss mouse assessed as induction of reversible motor depression at 20 mg/kg, po. The data set is classed as organism-based. Particulars: in vivo.
A short description of data set [10]: Toxicity in male Swiss mouse assessed as induction of reversible motor depression at 50 mg/kg, po. The data set is classed as organism-based. Conditions: in vivo.
Data set [11] can be described thus: Toxicity in female Swiss mouse assessed as induction of reversible motor depression at 30 mg/kg, po. The class given is organism-based. Particulars: in vivo.

A value given as a limit tells only on which side of the number the result lay.

As for `CCc1nn(C)c(C(=O)NCc2ccc(Oc3ccc(C)cc3)cc2)c1Cl` [TOLFENPYRAD], the “Ratio IC50” value in data set [1] was determined as 55. In [2], the IC50 at 48 h was below 6000 nM. In data set [3], the Activity result is recorded as “Toxic”. Also, the IC50 at 1 h in data set [4] turned out to be 1100 nM. For the same molecule, in data set [5], the MTD turned out to be 1 mg/kg. Besides, the IC50 was 33700 nM in data set [6] and 20 nM in data set [7].

As to `Cn1ncc(Cl)c1C(=O)NCc1ccc(-c2noc(C3CC3)n2)cc1`, in data set [1], the “Ratio IC50” value was found to be 4144. Also, the 50% inhibitory concentration (IC50) at 48 h in data set [2] is below 6000 nM. Moreover, the Activity entry in data set [3] is given as “Toxic”. For the same molecule, the IC50 at 1 h in data set [4] stood at 3730 nM. Moreover, the MTD in [5] was 1 mg/kg. Moreover, the IC50 in data set [6] turned out to be 24300 nM; in data set [7] it was 0.9 nM.

Turning to `Cn1ncc(Cl)c1C(=O)NCc1ccc(Oc2ccc(Cl)nc2)cc1`, the “Ratio IC50” value in data set [1] is recorded as 63. The IC50 at 48 h in data set [2] was below 6000 nM. The Activity result in data set [3] is “Toxic”. In addition, the IC50 at 1 h in data set [4] turned out to be 1900 nM. Further, the MTD in [5] turned out to be 1 mg/kg. Moreover, the half-inhibitory concentration (IC50) is above 50000 nM in data set [6] and 30 nM in [7].

Regarding `Cn1ncc(Cl)c1C(=O)NCc1ccc(Oc2ccc(Cl)cc2)cc1`, the “Ratio IC50” value in [1] is 1700. Besides, the Activity entry in [8] and in [9] was “Toxic” each time. Moreover, the IC50 at 48 h in data set [2] is below 6000 nM. Moreover, the IC50 at 1 h in data set [4] came to 1700 nM. Moreover, the MTD in data set [5] stood at 5 mg/kg. Moreover, the IC50 is above 50000 nM in data set [6] and 1 nM in data set [7].

As for `CCc1nc(-c2ccc(CNC(=O)c3ccnn3C)cc2)no1`, the “Ratio IC50” value in [1] worked out at 7. In addition, the IC50 at 48 h in [2] is below 6000 nM. For the same molecule, in data set [3], the Activity result is “Toxic”. For the same molecule, the IC50 at 1 h in data set [4] stood at 1300 nM. Further, the MTD in data set [5] was 1 mg/kg. Besides, the IC50 was above 100000 nM in data set [6] and 200 nM in data set [7].

For `Cc1ccc(Oc2ccc(CNC(=O)c3c(F)cnn3C)cc2)cc1`, the “Ratio IC50” value in data set [1] stood at 430. The IC50 at 48 h in data set [2] is below 6000 nM. The Activity result in data set [10] and in data set [11] was “Toxic” in each case. Besides, the IC50 at 1 h in [4] is 4300 nM. In addition, the MTD in [5] came out at 20 mg/kg. Further, the IC50 in [6] stood at 13700 nM; in data set [7], 10 nM.

In the case of `CCc1nn(C)c(C(=O)NCc2ccc(Oc3ccc(Cl)cc3)cc2)c1Cl`, the “Ratio IC50” value in [1] is on record as 6. In addition, the IC50 at 48 h in [2] is below 6000 nM. Also, the IC50 at 1 h in data set [4] was 510 nM. The IC50 came out at 8700 nM in data set [6] and 80 nM in [7].

As to `CCc1nc(-c2ccc(CNC(=O)c3c(Cl)c(CC)nn3C)cc2)no1`, the “Ratio IC50” value in data set [1] is reported as 80. The IC50 at 48 h in data set [2] was below 6000 nM. In data set [4], the half-maximal inhibitory concentration (IC50) at 1 h was found to be 160 nM. Moreover, the values for the IC50 in [6] and in [7] were above 50000 nM and 2 nM, respectively.

In the case of `Cc1nn(C)c(C(=O)NCc2ccc(Oc3ccc(Cl)nc3)cc2)c1Cl`, the “Ratio IC50” value in data set [1] turned out to be 500. In addition, the IC50 at 48 h in data set [2] is below 6000 nM. Further, the Activity entry in [3] is on record as “Toxic”. For the same molecule, the 50% inhibitory concentration (IC50) at 1 h in [4] was found to be 150 nM. In [5], the MTD amounted to 1 mg/kg. Also, the IC50 was above 50000 nM in data set [6] and 0.3 nM in data set [7].

With `Cc1nn(C)c(C(=O)NCc2ccc(Oc3ccc(Cl)cc3)cc2)c1Cl`, in data set [1], the “Ratio IC50” value was 181. Moreover, the IC50 at 48 h in data set [2] is below 6000 nM. Besides, in data set [4], the IC50 at 1 h came to 1270 nM. For the same molecule, the half-maximal inhibitory concentration (IC50) in data set [6] was 50000 nM; in data set [7], below 0.7 nM.

What is called IC50 is the concentration that inhibits the measured activity by half.
